Molecules are shown by their SMILES.

Sequence of FGFR2 (P21802 399-821 limits assumed): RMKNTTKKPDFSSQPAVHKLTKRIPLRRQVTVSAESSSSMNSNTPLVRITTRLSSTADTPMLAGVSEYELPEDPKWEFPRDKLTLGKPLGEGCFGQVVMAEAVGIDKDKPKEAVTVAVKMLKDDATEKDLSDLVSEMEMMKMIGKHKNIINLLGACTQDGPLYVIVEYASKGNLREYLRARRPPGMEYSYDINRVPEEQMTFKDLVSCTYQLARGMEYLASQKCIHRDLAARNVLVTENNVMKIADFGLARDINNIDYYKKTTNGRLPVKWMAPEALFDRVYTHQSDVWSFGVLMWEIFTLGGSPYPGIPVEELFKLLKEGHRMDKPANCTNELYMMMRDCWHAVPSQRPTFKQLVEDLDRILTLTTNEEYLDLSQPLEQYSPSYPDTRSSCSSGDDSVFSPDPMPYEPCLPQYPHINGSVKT

One assay has as its target FGFR2 (Homo sapiens, UniProt P21802). Kind of assay: FGFR wild type enzyme assay (HTRF KinEASE-TK), FGFR2. The following applies: Enz FGFR2 (nM).
On to `N#Cc1cnn2cc(-c3cnn([C@H]4CCCNC4)c3)cc(Sc3cncnc3)c12` [Example 83, 6-[1-[(3S)-3-piperidyl]pyrazol-4-yl]-4-pyrimidin-5-ylsulfanyl-pyrazolo[1,5-a] pyridine-3-carbonitrile], for which 19 nM corresponded to half-maximal inhibition (IC50). The same measure, in the same setting: for `Cc1nccc(Sc2cc(-c3cnn(C4CCNCC4)c3C)cn3ncc(C#N)c23)c1F` [Example 121] the value was 99 nM.

The same assay, now with this note: Enz FGFR2 (nM), FGFR2 wild type enzyme.
As to `CO[C@@H](C)CN1CCC(n2ncc(-c3cc(Sc4ncccc4F)c4c(C#N)cnn4c3)c2C)CC1` [Example 149, (S)-4-((3-fluoropyridin-2-yl)thio)-6-(1-(1-(2-methoxypropyl)piperidin-4-yl)-5-methyl-1H-pyrazol-4-yl)pyrazolo[1,5-a]pyridine-3-carbonitrile], the IC50 came out at 2 nM. Same read-out and setting: for `Cc1c(-c2cc(Sc3ncccc3F)c3c(C#N)cnn3c2)cnn1[C@H]1CC[C@@H](NCc2ccccn2)CC1` [Example 270, 4-((3-fluoropyridin-2-yl)thio)-6-(5-methyl-1-((1s,4s)-4-((pyridin-2-ylmethyl)amino)cyclohex-yl)-1H-pyrazol-4-yl)pyrazolo[1,5-a]pyridine-3-carbonitrile] the value was 0.7 nM. Same read-out and setting: with `Cc1c(-c2cc(Sc3ncccc3F)c3c(C#N)cnn3c2)cnn1CC1CCNCC1` [Example 222, 4-((3-fluoropyridin-2-yl)thio)-6-(5-methyl-1-(piperidin-4-ylmethyl)-1H-pyrazol-4-yl)pyrazolo[1,5-a]pyridine-3-carbonitrile] the figure was 5 nM; with `CC(=O)N1CCC[C@H](Cn2ncc(-c3cc(Sc4ncccc4F)c4c(C#N)cnn4c3)c2C)C1` [Example 207, (S)-6-(1-((1-acetylpiperidin-3-yl)methyl)-5-methyl-1H-pyrazol-4-yl)-4-((3-fluoropyridin-2-yl)thio)pyrazolo[1,5-a]pyridine-3-carbonitrile], 5 nM; with `Cc1c(-c2cc(Sc3ncccc3F)c3c(C#N)cnn3c2)cnn1[C@H](C)CN(C)C` [Example 180, (R)-6-(1-(1-(dimethylamino)propan-2-yl)-5-methyl-1H-pyrazol-4-yl)-4-((3-fluoropyridin-2-yl)thio)pyrazolo[1,5-a]pyridine-3-carbonitrile], 15 nM. On to `Cc1c(-c2cc(Sc3ccccc3C#N)c3c(C#N)cnn3c2)cnn1C1CCC(N(C)C)CC1` (stereo not shown) [Example 159], for which half-maximal inhibition (IC50) was put at 0.5 nM. The same measure, in the same setting: with `Cc1c(-c2cc(Sc3ccccc3C#N)c3c(C#N)cnn3c2)cnn1[C@H]1CC[C@H](N(C)CCO)CC1` [Example 284, 4-((2-cyanophenyl)thio)-6-(1-((1r,4SR)-4-((2-hydroxyethyl)(methyl)ami-no)cyclohexyl)-5-methyl-1H-pyrazol-4-yl)pyrazolo[1,5-a]pyridine-3-carbonitrile] the figure was 0.4 nM.

In the case of `Cc1c(-c2cc(Sc3ncccc3F)c3c(C#N)cnn3c2)cnn1C1CCN(C(=O)CO)CC1` [Example 163, 4-((3-fluoropyridin-2-yl)thio)-6-(1-(1-(2-hydroxyacetyl)piperidin-4-yl)-5-methyl-1H-pyrazol-4-yl)pyrazolo[1,5-a]pyridine-3-carbonitrile], half-maximal inhibition (IC50) was put at 3 nM. Still for that read-out and setting: for `CC(=O)N[C@H]1CC[C@@H](n2cc(-c3cc(Sc4ncccc4C)c4c(C#N)cnn4c3)cn2)CC1` [Example 315, N-((1s,4s)-4-(4-(3-cyano-4-((3-methylpyridin-2-yl)thio)pyrazolo[1,5-a]pyridin-6-yl)-1H-pyrazol-1-yl)cyclohexyl)acetamide] the value was 3 nM; for `Cc1c(-c2cc(Sc3ccccc3C#N)c3c(C#N)cnn3c2)cnn1[C@H]1C[C@H]2CC[C@@H](C1)N2C` [Example 264, 4-((2-cyanophenyl)thio)-6-(5-methyl-1-((1R,3r,5S)-8-methyl-8-azabicyclo[3.2.1]octan-3-yl)-1H-pyrazol-4-yl)pyrazolo[1,5-a]pyridine-3-carbonitrile], 1 nM.

The assay is the same for the next values; noted with them: Enz FGFR2 (nM), FGFR2 wild type enzyme assay.
`CC(=O)N1CCC[C@H](n2cc(-c3cc(Sc4nc(C)c(F)cc4F)c4c(C#N)cnn4c3)cn2)C1` [Example 630, (S)-6-(1-(1-acetylpiperidin-3-yl)-1H-pyrazol-4-yl)-4-((3,5-difluoro-6-methylpyridin-2-yl)thio)pyrazolo[1,5-a]pyridine-3-carbonitrile] came in with an IC50 of 1 nM.

`N#Cc1ccccc1Sc1cc(-c2ccc(N3CCO[C@@H](CO)C3)nc2)cn2ncc(C#N)c12` [Example 648, (R)-4-((2-cyanophenyl)thio)-6-(6-(2-(hydroxymethyl)morpholi-no)pyridin-3-yl)pyrazolo[1,5-a]pyridine-3-carbonitrile]: the IC50 was 0.6 nM.

Regarding `Cc1c(-c2cc(Sc3ccc(F)cc3C#N)c3c(C#N)cnn3c2)cnn1[C@H]1CC[C@@](O)(CO)CC1` [Example 438, 4-(2-cyano-4-fluoro-phenyl) sulfanyl-6-[1-[4-hydroxy-4-(hydroxymethyl)cyclohexyl]-5-methylpyrazol-4-yl] pyrazolo[1,5-a]pyridine-3-carbonitrile], half-maximal inhibition (IC50) was put at 1 nM. The same measure, in the same setting: with `Cc1c(-c2cc(Sc3ccccc3C#N)c3c(C#N)cnn3c2)cnn1C1CCN(C#N)CC1` [Example 556, 4-((2-cyanophenyl)thio)-6-(1-(1-cyanopiperidin-4-yl)-5-methyl-1H-pyrazol-4-yl)pyrazolo[1,5-a]pyridine-3-carbonitrile] the figure was 1 nM; with `Cn1ncc(-c2cc(Sc3ccccc3C#N)c3c(C#N)cnn3c2)c1N` [Example 608, 6-(5-amino-1-methyl-1H-pyrazol-4-yl)-4-((2-cyanophenyl)thio)pyrazolo [1,5-a]pyridine-3-carbonitrile], 2 nM.

On to `COC(=O)N1CCC[C@H](n2ncc(-c3cc(Sc4ccc(F)cc4C#N)c4c(C#N)cnn4c3)c2C)C1` [Example 363, methyl (S)-3-(4-(3-cyano-4-((2-cyano-4-fluorophenyl)thio)pyrazolo [1,5-a]pyridin-6-yl)-5-methyl-1H-pyrazol-1-yl)piperidine-1-carboxylate], for which it took 2 nM to reach half-maximal inhibition (IC50). In turn, `C[C@@H](O)Cn1cc(-c2cc(Sc3ccccc3C#N)c3c(C#N)cnn3c2)cn1` [Example 567, (R)-4-((2-cyanophenyl)thio)-6-(1-(2-hydroxypropyl)-1H-pyrazol-4-yl)pyrazolo[1,5-a]pyridine-3-carbonitrile] had an IC50 of 1 nM. On the same count and under the same terms, for `CC(=O)N1CCC(n2cc(-c3cc(Sc4ccccc4C#N)c4c(C#N)cnn4c3)c(C)n2)CC1` [Example 400, 6-(1-(1-acetylpiperidin-4-yl)-3-methyl-1H-pyrazol-4-yl)-4-((2-cyanophenyl)thio)pyrazolo [1,5-a]pyridine-3-carbonitrile] the value was 3 nM; for `CN1C[C@H](n2cc(-c3cc(Sc4ccccc4C#N)c4c(C#N)cnn4c3)cn2)CCC1=O` [Example 667, (R)-4-((2-cyanophenyl)thio)-6-(1-(1-methyl-6-oxopiperidin-3-yl)-1H-pyrazol-4-yl)pyrazolo[1,5-a]pyridine-3-carbonitrile], 1 nM; for `N#Cc1ccccc1Sc1cc(-c2cnn(C[C@@H](O)CO)c2)cn2ncc(C#N)c12` [Example 492, (R)-4-((2-cyanophenyl)thio)-6-(1-(2,3-dihydroxypropyl)-1H-pyrazol-4-yl)pyrazolo[1,5-a]pyridine-3-carbonitrile], 1 nM.

In turn, `CC1(C)C[C@H](n2cc(-c3cc(Sc4ccccc4C#N)c4c(C#N)cnn4c3)cn2)CCN1` [Example 620, (R)-4-((2-cyanophenyl)thio)-6-(1-(2,2-dimethylpiperidin-4-yl)-1H-pyrazol-4-yl)pyrazolo[1,5-a]pyridine-3-carbonitrile] yielded an IC50 of 0.3 nM. Molecule `CC(C)(C)n1cc(-c2cc(Sc3ncccc3F)c3c(C#N)cnn3c2)cn1` [Example 489, 6-(1-(tert-butyl)-1H-pyrazol-4-yl)-4-((3-fluoropyridin-2-y)thio)pyrazolo[1,5-a]pyridine-3-carbonitrile] had an IC50 of 3 nM. Against the preceding molecule, the IC50 is about 10-fold higher.

For `Cc1c(-c2cc(Sc3ccc(Cl)cc3C#N)c3c(C#N)cnn3c2)cnn1C1CCN(C)CC1` [Example 369, 4-((4-chloro-2-cyanophenyl)thio)-6-(5-methyl-1-(1-methylpiperidin-4-yl)-1H-pyrazol-4-yl)pyrazolo[1,5-a]pyridine-3-carbonitrile], the IC50 turned out to be 5 nM. On the same count and under the same terms, with `N#Cc1cc(F)ccc1Sc1cc(-c2ccc(N3CC[C@H](O)C3)nc2)cn2ncc(C#N)c12` [Example 626, (S)-4-((2-cyano-4-fluorophenyl)thio)-6-(6-(3-hydroxypyrrolidin-1-yl)pyridin-3-yl)pyrazolo[1,5-a]pyridine-3-carbonitrile] the figure was 1 nM. Same read-out and setting: for `N#Cc1cnn2cc(-c3ccc(N4CCCC4)nc3)cc(Sc3ncccc3F)c12` [Example 554, 4-((3-fluoropyridin-2-yl)thio)-6-(6-(pyrrolidin-1-yl)pyridin-3-yl)pyrazolo[1,5-a]pyridine-3-carbonitrile] the value was 2 nM. Still for that read-out and setting: for `CN(CCO)c1ccc(-c2cc(Sc3ccc(F)cc3C#N)c3c(C#N)cnn3c2)cn1` [Example 639, 4-((2-cyano-4-fluorophenyl)thio)-6-(6-((2-hydroxyethyl)(methyl)ami-no)pyridin-3-yl)pyrazolo[1,5-a]pyridine-3-carbonitrile] the value was 1.5 nM. Consider `Cc1c(-c2cc(Sc3ncccc3C#N)c3c(C#N)cnn3c2)cnn1[C@H]1CCCNC1` [Example 434, (S)-4-((3-cyanopyridin-2-yl)thio)-6-(5-methyl-1-(piperidin-3-yl)-1H-pyrazol-4-yl)pyrazolo[1,5-a]pyridine-3-carbonitrile], for which the half-maximal inhibitory concentration (IC50) turned out to be 1 nM. Compared with the last molecule, the IC50 is about 1.5-fold lower. Still for that read-out and setting: for `CC(C)n1cc(-c2cc(Sc3ncccc3F)c3c(C#N)cnn3c2)cn1` [Example 449, 4-((3-fluoropyridin-2-yl)thio)-6-(1-isopropyl-1H-pyrazol-4-yl)pyrazolo[1,5-a]pyridine-3-carbonitrile] the value was 2 nM. `Cc1c(-c2cc(Sc3ccc(F)cc3C#N)c3c(C#N)cnn3c2)cnn1C[C@@H](O)CO` [Example 561, (R)-4-((2-cyano-4-fluorophenyl)thio)-6-(1-(2,3-dihydroxypropyl)-5-methyl-1H-pyrazol-4-yl)pyrazolo[1,5-a]pyridine-3-carbonitrile] had an IC50 of 7 nM.

The record behind these values is patent US20240270741A1 (Cogent Biosciences, Inc., priority 2023, published 2024).
